From patent US8124793B2, “Derivatives of ethylene methanedisulfonate as cancer chemotherapeutic agents” (priority 2007, dated 2012)

Assays:
EKVX = experiment: NCI screen, growth of human tumor cells: Non-Small Cell Lung EKVX; type: cell-based; conditions: EKVX
Procedure: (§1) In the NCI screening process, each compound was tested and described by a minimum of 60 data points. The test data include, but are not limited to the type of cancer, the molar concentration used in the screen, and the percent growth of the cancer. In some cases, NMR and elemental analysis were used for structural assignment.

HOP-18 = experiment: NCI screen, growth of human tumor cells: Non-Small Cell Lung HOP-18; type: cell-based
Procedure: as §1

NCI-H226 = experiment: NCI screen, growth of human tumor cells: Non-Small Cell Lung NCI-H226; type: cell-based
How it was run: (§2)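 Under the NCI protocol, every compound is profiled with sixty or more data points. Each point ties a cancer type and a molar screening concentration to a percent growth value.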

human cancer cells = experiment: NCI screen summary over the cancers tested (negative growth of human cancer cells); type: cell-based; conditions: cancers with negative growth / cancers tested
Procedure: as §1
The derivatives in the tables are grouped using the same category as in the tables 1-6.

UACC-62 = experiment: NCI screen, growth of human tumor cells: Melanoma UACC-62; type: cell-based; conditions: UACC-62 (Melanoma), 10^−4 molar
How it was run: as §2

SF-539 = experiment: NCI screen, growth of human tumor cells: CNS Cancer SF-539; type: cell-based
How it was run: as §2

HL-60 (TB) = experiment: NCI screen, growth of human tumor cells: Leukemia HL-60 (TB); type: cell-based; conditions: HL-60 (TB) (Leukemia), 10^−4 molar
Procedure: as §1

K562 = experiment: NCI screen, growth of human tumor cells: Leukemia K562; type: cell-based; conditions: K562 (Leukemia), 10^−4 molar
How it was run: as §2

RPMI-8226 = experiment: NCI screen, growth of human tumor cells: Leukemia RPMI-8226; type: cell-based; conditions: RPMI-8226 (Leukemia), 10^−4 molar
Procedure: as §1

SR = experiment: NCI screen, growth of human tumor cells: Leukemia SR; type: cell-based; conditions: SR (Leukemia), 10^−4 molar
How it was run: as §2

AS49/ATCC = experiment: NCI screen, growth of human tumor cells: Non-Small Cell Lung AS49/ATCC; type: cell-based; conditions: AS49/ATCC (Non-Small Cell Lung), 10^−4 molar
Procedure: as §1

HOP-62 = experiment: NCI screen, growth of human tumor cells: Non-Small Cell Lung HOP-62; type: cell-based; conditions: HOP-62 (Non-Small Cell Lung), 10^−4 molar
How it was run: as §2

NCI-H460 = experiment: NCI screen, growth of human tumor cells: Non-Small Cell Lung NCI-H460; type: cell-based; conditions: NCI-H460 (Non-Small Cell Lung), 10^−4 molar
How it was run: as §2

NCI-H23 = experiment: NCI screen, growth of human tumor cells: Non-Small Cell Lung NCI-H23; type: cell-based; conditions: NCI-H23, 10^−4 molar
Procedure: as §1

COLO205 = experiment: NCI screen, growth of human tumor cells: Colon Cancer COLO205; type: cell-based; conditions: COLO205 (Colon Cancer), 10^−4 molar
Procedure: as §1

HCT-116 = experiment: NCI screen, growth of human tumor cells: Colon Cancer HCT-116; type: cell-based; conditions: HCT-116 (Colon Cancer), 10^−4 molar
How it was run: as §2

HCT-15 = experiment: NCI screen, growth of human tumor cells: Colon Cancer HCT-15; type: cell-based; conditions: HCT-15 (Colon Cancer), 10^−4 molar
How it was run: as §2

KM12 = experiment: NCI screen, growth of human tumor cells: Colon Cancer KM12; type: cell-based
Procedure: as §1

SF-268 = experiment: NCI screen, growth of human tumor cells: CNS Cancer SF-268; type: cell-based; conditions: SF-268 (CNS Cancer), 10^−4 molar
How it was run: as §2

SF-295 = experiment: NCI screen, growth of human tumor cells: CNS Cancer SF-295; type: cell-based; conditions: SF-295 (CNS Cancer), 10^−4 molar
Procedure: as §1

SNB-75 = experiment: NCI screen, growth of human tumor cells: CNS Cancer SNB-75; type: cell-based; conditions: SNB-75 (CNS Cancer), 10^−4 molar
How it was run: as §2

U-251 = experiment: NCI screen, growth of human tumor cells: CNS Cancer U-251; type: cell-based; conditions: U-251 (CNS Cancer), 10^−4 molar
How it was run: as §2

M14 = experiment: NCI screen, growth of human tumor cells: Melanoma M14; type: cell-based; conditions: M14 (Melanoma), 10^−4 molar
Procedure: as §1

SK-MEL-2 = experiment: NCI screen, growth of human tumor cells: Melanoma SK-MEL-2; type: cell-based
Procedure: as §1

SK-MEL-28 = experiment: NCI screen, growth of human tumor cells: Melanoma SK-MEL-28; type: cell-based; conditions: SK-MEL-28 (Melanoma), 10^−4 molar
Procedure: as §1

SK-MEL-5 = experiment: NCI screen, growth of human tumor cells: Melanoma SK-MEL-5; type: cell-based
How it was run: as §2

OVCAR-3 = experiment: NCI screen, growth of human tumor cells: Ovarian Cancer OVCAR-3; type: cell-based; conditions: OVCAR-3 (Ovarian Cancer), 10^−4 molar
How it was run: as §2

OVCAR-4 = experiment: NCI screen, growth of human tumor cells: Ovarian Cancer OVCAR-4; type: cell-based; conditions: OVCAR-4 (Ovarian Cancer), 10^−4 molar
Procedure: as §1

OVCAR-5 = experiment: NCI screen, growth of human tumor cells: Ovarian Cancer OVCAR-5; type: cell-based
Procedure: as §1

ACHN = experiment: NCI screen, growth of human tumor cells: Renal Cancer ACHN; type: cell-based; conditions: ACHN, 10^−4 molar
How it was run: as §2

RXF-393 = experiment: NCI screen, growth of human tumor cells: Renal Cancer RXF-393; type: cell-based; conditions: RXF-393 (Renal Cancer), 10^−4 molar
Procedure: as §1

SN12C = experiment: NCI screen, growth of human tumor cells: Renal Cancer SN12C; type: cell-based; conditions: SN12C
Procedure: as §1

UO-31 = experiment: NCI screen, growth of human tumor cells: Renal Cancer UO-31; type: cell-based; conditions: UO-31 (Renal Cancer), 10^−4 molar
Procedure: as §1

DU-145 = experiment: NCI screen, growth of human tumor cells: Prostate Cancer DU-145; type: cell-based
Procedure: as §1

MCF7/ADR-RES = experiment: NCI screen, growth of human tumor cells: Breast Cancer MCF7/ADR-RES; type: cell-based; conditions: MCF7/ADR-RES (Breast Cancer), 10^−4 molar
Procedure: as §1

BT-549 = experiment: NCI screen, growth of human tumor cells: Breast Cancer BT-549; type: cell-based; conditions: BT-549 (Breast Cancer), 10^−4 molar
Procedure: as §1

HS 578T = experiment: NCI screen, growth of human tumor cells: Breast Cancer HS 578T; type: cell-based; conditions: HS 578T (Breast Cancer), 10^−4 molar
Procedure: as §1

MDA-MB-435 = experiment: NCI screen, growth of human tumor cells: Breast Cancer MDA-MB-435; type: cell-based; conditions: MDA-MB-435, 10^−4 molar
Procedure: as §1

O=S1(=O)OCCOS(=O)(=O)C1Cl [MWC 91-6, ethylene chloromethanedisulfonate]
melting point: 85 to 88 °C

O=S1(=O)OCCOS(=O)(=O)C1(Br)Br [NSC 648304, ethylene dibromomethanedisulfonate]
% Growth (EKVX; 10^−4 molar): 51%
% Growth (EKVX; 10^−5 molar): 57%
% Growth (EKVX; 10^−6 molar): 58%
% Growth (EKVX; 10^−7 molar): 62%
% Growth (EKVX; 10^−8 molar): 58%
% Growth (HOP-18; HOP-18, 10^−4 molar): 53%
% Growth (HOP-18; HOP-18, 10^−5 molar): 75%
% Growth (HOP-18; HOP-18, 10^−6 molar): 52%
% Growth (HOP-18; HOP-18, 10^−7 molar): 14%
% Growth (HOP-18; HOP-18, 10^−8 molar): 42%
% Growth (NCI-H226; NCI-H226, 10^−4 molar): −1%
% Growth (NCI-H226; NCI-H226, 10^−5 molar): 49%
% Growth (NCI-H226; NCI-H226, 10^−6 molar): 47%
% Growth (NCI-H226; NCI-H226, 10^−7 molar): 54%
% Growth (NCI-H226; NCI-H226, 10^−8 molar): 62%
Percentage of cancers showing negative growth cancers tested (human cancer cells; 10^−4 M conc.): 10^−4 M conc. = 1/3 = 33%
melting point: 214 to 220 °C

O=S1(=O)OCCOS(=O)(=O)C1Br [NSC 648305, ethylene bromomethanedisulfonate]
% Growth (EKVX; 10^−4 molar): 51%
% Growth (EKVX; 10^−5 molar): 56%
% Growth (EKVX; 10^−6 molar): 59%
% Growth (EKVX; 10^−7 molar): 60%
% Growth (EKVX; 10^−8 molar): 65%
% Growth (HOP-18; HOP-18, 10^−4 molar): −61%
% Growth (HOP-18; HOP-18, 10^−5 molar): 68%
% Growth (HOP-18; HOP-18, 10^−6 molar): 49%
% Growth (HOP-18; HOP-18, 10^−7 molar): 63%
% Growth (HOP-18; HOP-18, 10^−8 molar): 63%
% Growth (NCI-H226; NCI-H226, 10^−4 molar): 7%
% Growth (NCI-H226; NCI-H226, 10^−5 molar): 16%
% Growth (NCI-H226; NCI-H226, 10^−6 molar): 20%
% Growth (NCI-H226; NCI-H226, 10^−7 molar): 21%
% Growth (NCI-H226; NCI-H226, 10^−8 molar): 43%
Percentage of cancers showing negative growth cancers tested (human cancer cells; 10^−4 M conc.): 10^−4 M conc. = 1/3 = 33%
melting point: 128 to 134 °C

O=S1(=O)OCCOS(=O)(=O)C1I [NSC 648309, ethylene iodomethanedisulfonate]
percent of growth of human tumor cells (NCI-H226; NCI-H226 (Non-Small Cell Lung), 10^−4 molar): 20%
percent of growth of human tumor cells (UACC-62): 17%
Percentage of cancers showing negative growth cancers tested (human cancer cells; 10^−4 M conc.): 10^−4 M conc. = 0/2 = 0%
melting point: 144 to 160 °C

O=S1(=O)OCCOS(=O)(=O)C1F [NSC 665942, ethylene fluoromethanedisulfonate]
percent of growth of human tumor cells (SF-539; SF-539 (CNS Cancer), 10^−4 molar): 28%
Percentage of cancers showing negative growth cancers tested (human cancer cells; 10^−4 M conc.): 10^−4 M conc. = 0/1 = 0%
melting point: 84 to 86 °C

CC=CC(=O)C1(C2=C(Cl)C(=O)c3ccccc3C2=O)S(=O)(=O)OCCOS1(=O)=O [NSC 731264, ethylene crotonoyl-[3-chloro-1,4-naptho-2-quinolyl]-1,1-methanedisulfonate]
percent of growth of human tumor cells (HL-60 (TB)): 17%
percent of growth of human tumor cells (K562): 19%
percent of growth of human tumor cells (RPMI-8226): −18%
percent of growth of human tumor cells (SR): 7%
percent of growth of human tumor cells (AS49/ATCC): −36%
percent of growth of human tumor cells (HOP-62): −56%
percent of growth of human tumor cells (NCI-H460): 10%
% Growth (NCI-H23): −72%
percent of growth of human tumor cells (COLO205): 30%
percent of growth of human tumor cells (HCT-116): 26%
percent of growth of human tumor cells (HCT-15): −59%
% Growth (KM12; KM12, 10^−4 molar): −68%
% Growth (KM12; KM12, 10^−5 molar): −75%
% Growth (KM12; KM12, 10^−6 molar): 66%
percent of growth of human tumor cells (SF-268): 7%
percent of growth of human tumor cells (SF-295): −57%
% Growth (SF-539; SF-539, 10^−4 molar): −73%
percent of growth of human tumor cells (SNB-75): −33%
percent of growth of human tumor cells (U-251): −5%
percent of growth of human tumor cells (M14): −6%
% Growth (SK-MEL-2; SK-MEL-2, 10^−4 molar): 27%
% Growth (SK-MEL-2; SK-MEL-2, 10^−5 molar): 49%
percent of growth of human tumor cells (SK-MEL-28): −59%
% Growth (SK-MEL-5; SK-MEL-5, 10^−4 molar): −53%
% Growth (SK-MEL-5; SK-MEL-5, 10^−5 molar): 28%
percent of growth of human tumor cells (UACC-62): −16%
percent of growth of human tumor cells (OVCAR-3): 5%
percent of growth of human tumor cells (OVCAR-4): 19%
% Growth (OVCAR-5; OVCAR-5, 10^−4 molar): −49%
% Growth (OVCAR-5; OVCAR-5, 10^−5 molar): 51%
% Growth (OVCAR-5; OVCAR-5, 10^−6 molar): 39%
% Growth (OVCAR-5; OVCAR-5, 10^−7 molar): 46%
% Growth (OVCAR-5; OVCAR-5, 10^−8 molar): 52%
% Growth (ACHN): −82%
percent of growth of human tumor cells (RXF-393): −50%
% Growth (SN12C; 10^−4 molar): −67%
% Growth (SN12C; 10^−5 molar): −99%
% Growth (SN12C; 10^−6 molar): −4%
percent of growth of human tumor cells (UO-31): 12%
% Growth (DU-145; DV-145, 10^−4 molar): −68%
% Growth (DU-145; DV-145, 10^−5 molar): −96%
% Growth (DU-145; DV-145, 10^−6 molar): 38%
percent of growth of human tumor cells (MCF7/ADR-RES): 20%
percent of growth of human tumor cells (BT-549): −52%
percent of growth of human tumor cells (HS 578T): −12%
% Growth (MDA-MB-435): −73%
Percentage of cancers showing negative growth cancers tested (human cancer cells; 10^−4 M conc.): 65%
Percentage of cancers showing negative growth cancers tested (human cancer cells; 10^−5 M conc.): 50%
Percentage of cancers showing negative growth cancers tested (human cancer cells; 10^−6 M conc.): 25%
